Where two headings read alike, the source gives them in different places.
Experiments:
Assay in all cases: MIC of compounds alone and combined with antibacterials, broth microdilution (CLSI)
Type in all cases: cell-based
[1] = system: Escherichia coli (ECO) isolates; settings: Escherichia coli, read-out: MIC
Method: (§1) Method 2: MIC of Compounds Alone and Combined with Antibacterials Against Bacterial Isolates
(§2) Compounds of the present invention were assessed against genotyped bacterial strains (Table 3, 4) alone or in combination with an antibacterial (Table 2). […] Log phase bacterial suspensions were adjusted to a final density of 5.10^5 CFU/mL in cation-adjusted Mueller-Hinton broth (ca-MHB; Becton-Dickinson and Company) and added to each well (98 μL). Microplates were incubated for 16-20 h at 35° C. in ambient air. The MIC of the compounds was defined as the lowest concentration of said compounds that prevented bacterial growth as read by visual inspection. The MIC of ATB at each compound concentration was defined as the lowest concentration of ATB that prevented bacterial growth as read by visual inspection.

[2] = system: Citrobacter koseri (CKR) isolates
Method: as §1, §2

[3] = system: Salmonella typhimurium (STY) isolates
Method: as §1
(§3) Compounds of the present invention were assessed against genotyped bacterial strains (Table 3, 4) alone or in combination with an antibacterial (Table 2). […]. Briefly, compounds alone according to the invention were prepared in DMSO and spotted (2 μL each) on sterile polystyrene plates (Corning, 3788). Combinations of compounds and antibiotics dilutions were prepared in DMSO and spotted (1 μL each) on sterile polystyrene plates (Corning, 3788). Log phase bacterial suspensions were adjusted to a final density of 5.10^5 CFU/mL in cation-adjusted Mueller-Hinton broth (ca-MHB; Becton-Dickinson and Company) and added to each well (98 μL). Microplates were incubated for 16-20 h at 35° C. in ambient air. The MIC of the compounds was defined as the lowest concentration of said compounds that prevented bacterial growth as read by visual inspection. The MIC of ATB at each compound concentration was defined as the lowest concentration of ATB that prevented bacterial growth as read by visual inspection.

[4] = system: Providencia stuartii (PST) isolates
Method: as §1, §3

Structure (SMILES): O=C1N2CC(c3ncco3)=CC(C2)N1OC(F)(F)C(=O)[O-].[Li+] (stereo not shown) [AF2]
- MIC ([1]; ECO 4133, alone): 8 µg/mL
- MIC ([1]; ECO 5302, alone): 4 µg/mL
- MIC ([1]; ECO 131119, alone): 4 µg/mL
- MIC ([1]; ECO 180070, alone): 8 µg/mL
- MIC ([1]; ECO 190314, alone): 8 µg/mL
- MIC ([1]; ECO 190317, alone): 4 µg/mL
- MIC ([1]; ECO 190457, alone): 4 µg/mL
- MIC ([1]; ECO 190549, alone): 4 µg/mL
- MIC ([1]; ECO 200159, alone): 4 µg/mL
- MIC ([1]; ECO 200259, alone): 4 µg/mL
- MIC ([1]; ECO 200344, alone): 8 µg/mL
- MIC ([1]; ECO 260096, alone): 16 µg/mL
- MIC ([1]; ECO 260304, alone): 4 µg/mL
- MIC ([1]; ECO 260508, alone): 8 µg/mL
- MIC ([1]; ECO (strain number on grid row 356, not shown), alone): 8 µg/mL
- MIC ([1]; ECO UFR17, alone): 16 µg/mL
- MIC ([1]; ECO UFR18, alone): 8 µg/mL
- MIC ([1]; ECO UFR19, alone): 8 µg/mL
- MIC ([1]; ECO UFR32, alone): 8 µg/mL
- MIC ([1]; ECO UFR39, alone): 8 µg/mL
- MIC ([1]; ECO UFR41, alone): 8 µg/mL
- MIC ([1]; ECO UFR45, alone): 4 µg/mL
- MIC ([1]; ECO UFR52, alone): 32 µg/mL
- MIC ([1]; ECO UFR61O, alone): 8 µg/mL
- MIC ([1]; ECO UFR62, alone): 8 µg/mL
- MIC ([1]; ECO UFR74, alone): 8 µg/mL
- MIC ([1]; ECO UFR86, alone): 16 µg/mL
- MIC ([1]; ECO UFR174, alone): 2 µg/mL
- MIC ([1]; ECO UFR176, alone): 8 µg/mL
- MIC ([1]; ECO UFR184, alone): 4 µg/mL
- MIC ([1]; ECO UFR208, alone): 16 µg/mL
- MIC ([1]; ECO UFR209, alone): 8 µg/mL
- MIC ([1]; ECO UFR210, alone): 4 µg/mL
- MIC ([1]; ECO UFR211, alone): 4 µg/mL
- MIC ([1]; ECO UFR212, alone): 4 µg/mL
- MIC ([1]; ECO URF20, alone): 4 µg/mL
- MIC ([1]; strain ECO UFR177, compound alone): 4 µg/mL
- MIC ([1]; strain ECO UFR178, compound alone): 8 µg/mL
- MIC ([1]; strain ECO UFR179, compound alone): 4 µg/mL
- MIC ([1]; strain ECO UFR180, compound alone): 4 µg/mL
- MIC ([1]; strain ECO UFR181, compound alone): 16 µg/mL
- MIC ([1]; strain ECO UFR182, compound alone): 8 µg/mL
- MIC ([1]; strain ECO UFR183, compound alone): 32 µg/mL
- MIC ([1]; strain ECO UFR186, compound alone): 8 µg/mL
- MIC ([1]; strain ECO UFR187, compound alone): 16 µg/mL
- MIC ([1]; strain ECO UFR189, compound alone): 4 µg/mL
- MIC ([1]; strain ECO UFR190, compound alone): 8 µg/mL
- MIC ([1]; strain ECO UFR191, compound alone): 8 µg/mL
- MIC ([1]; strain ECO UFR204, compound alone): 8 µg/mL
- MIC ([1]; strain ECO UFR205, compound alone): 8 µg/mL
- MIC ([1]; strain ECO UFR206, compound alone): 16 µg/mL
- MIC ([1]; strain ECO UFR252GO, compound alone): 8 µg/mL
- MIC ([1]; strain ECO UFR255, compound alone): 4 µg/mL
- MIC ([2]; Citrobacter koseri, CKO ROU, alone, read-out: MIC): 16 µg/mL
- MIC ([2]; Citrobacter koseri, CKO UFR149, alone, read-out: MIC): 16 µg/mL
- MIC ([2]; Citrobacter koseri, CKO UFR150, alone, read-out: MIC): > 32 µg/mL
- MIC ([3]; Salmonella enterica, TYPHIMURIUM, STY S3371, alone, read-out: MIC): 8 µg/mL
- MIC ([4]; Providencia stuartii, PST UFR94, alone, read-out: MIC): 16 µg/mL
- MIC ([4]; Providencia stuartii, PST UFR95, alone, read-out: MIC): 32 µg/mL
- MIC ([4]; Providencia stuartii, PST UFR120, alone, read-out: MIC): 8 µg/mL
- MIC ([4]; Providencia stuartii, PST UFR121, alone, read-out: MIC): 4 µg/mL
- MIC ([4]; Providencia stuartii, PST UFR122, alone, read-out: MIC): 4 µg/mL
- MIC ([4]; Providencia stuartii, PST UFR123, alone, read-out: MIC): 8 µg/mL
- MIC ([4]; Providencia stuartii, PST UFR124, alone, read-out: MIC): 8 µg/mL
- MIC ([4]; Providencia stuartii, PST UFR125, alone, read-out: MIC): 8 µg/mL
- MIC ([4]; Providencia stuartii, PST UFR235, alone, read-out: MIC): 16 µg/mL
- MIC ([4]; Providencia stuartii, strain PST UFR98, compound alone, read-out: MIC): 32 µg/mL

Structure (SMILES): CC(C)(O/N=C(\C(=O)N[C@@H]1C(=O)N2C(C(=O)[O-])=C(C[n+]3ccccc3)CS[C@H]12)c1csc(N)n1)C(=O)O [CAZ, Ceftazidime]
- MIC ATB in combination ([2]; CKO ROU, AF2 @ 8 μg/mL): 1 µg/mL
- MIC ATB in combination ([2]; CKO ROU, AF3 @ 8 μg/mL): 1 µg/mL
- MIC ATB in combination ([2]; CKO UFR149, AF2 @ 8 μg/mL): <0.25 µg/mL
- MIC ATB in combination ([2]; CKO UFR149, AF3 @ 8 μg/mL): <0.25 µg/mL
- MIC ATB in combination ([2]; CKO UFR150, AF2 @ 8 μg/mL): 4 µg/mL
- MIC ATB in combination ([2]; CKO UFR150, AF3 @ 8 μg/mL): 4 µg/mL
- MIC ([2]; strain CKO ROU, genotype TEM-1, SHV-12, CTX-M-15, OXA-1, OXA-48): 1 µg/mL
- MIC ([2]; strain CKO UFR149, genotype OXA-48): >128 µg/mL
- MIC ([2]; strain CKO UFR150, genotype TEM-1, OXA-48): 4 µg/mL
- MIC ATB in combination ([3]; STY S3371, AF2 @ 8 μg/mL): <0.25 µg/mL
- MIC ATB in combination ([3]; STY S3371, AF3 @ 8 μg/mL): <0.25 µg/mL
- MIC ([3]; strain STY S3371, genotype OXA-1): 0.5 µg/mL
- MIC ATB in combination ([4]; PST UFR94, AF2 @ 8 μg/mL): <=0.25 μg/mL
- MIC ATB in combination ([4]; PST UFR94, AF3 @ 8 μg/mL): <=0.25 μg/mL
- MIC ATB in combination ([4]; PST UFR95, AF2 @ 8 μg/mL): <=0.25 μg/mL
- MIC ATB in combination ([4]; PST UFR95, AF3 @ 8 μg/mL): <=0.25 μg/mL
- MIC ATB in combination ([4]; PST UFR120, AF2 @ 8 μg/mL): <0.25 µg/mL
- MIC ATB in combination ([4]; PST UFR120, AF3 @ 8 μg/mL): <0.25 µg/mL
- MIC ATB in combination ([4]; PST UFR121, AF2 @ 8 μg/mL): <0.25 µg/mL
- MIC ATB in combination ([4]; PST UFR121, AF3 @ 8 μg/mL): <0.25 µg/mL
- MIC ATB in combination ([4]; PST UFR122, AF2 @ 8 μg/mL): <0.25 µg/mL
- MIC ATB in combination ([4]; PST UFR122, AF3 @ 8 μg/mL): <0.25 µg/mL
- MIC ATB in combination ([4]; PST UFR123, AF2 @ 8 μg/mL): <=0.25 μg/mL
- MIC ATB in combination ([4]; PST UFR123, AF3 @ 8 μg/mL): <0.25 µg/mL
- MIC ATB in combination ([4]; PST UFR124, AF2 @ 8 μg/mL): <=0.25 μg/mL
- MIC ATB in combination ([4]; PST UFR124, AF3 @ 8 μg/mL): <0.25 µg/mL
- MIC ATB in combination ([4]; PST UFR125, AF2 @ 8 μg/mL): <=0.25 μg/mL
- MIC ATB in combination ([4]; PST UFR125, AF3 @ 8 μg/mL): <0.25 µg/mL
- MIC ATB in combination ([4]; PST UFR235, AF2 @ 8 μg/mL): <=0.25 μg/mL
- MIC ATB in combination ([4]; PST UFR235, AF3 @ 8 μg/mL): <=0.25 μg/mL
- MIC ([4]; strain PST UFR94, genotype CTX-M-14): 1 µg/mL
- MIC ([4]; strain PST UFR95, genotype TEM-24): 64 µg/mL
- MIC ([4]; strain PST UFR98, genotype TEM-1, CMY-6, OXA-1, NDM-1, RmtC): >256 µg/mL
- MIC ATB in combination ([4]; strain PST UFR98, with AF2 @ 8 μg/mL): >128 µg/mL
- MIC ATB in combination ([4]; strain PST UFR98, with AF3 @ 8 μg/mL): <0.25 µg/mL
- MIC ([4]; strain PST UFR235, genotype VEB-1): >128 µg/mL

Reference: patent US20200017495A1, “NOVEL HETEROCYCLIC COMPOUNDS AND THEIR USE IN PREVENTING OR TREATING BACTERIAL INFECTIONS” (priority 2017, published 2020)
